According to the supplement of paper PMC10307832:

Experiments:
Assay in all cases: relative viability (nuclei count vs DMSO), 5 days (fraction); higher = more cells survive
Alisertib + Tozasertib = compound: COc1cc(Nc2ncc3c(n2)-c2ccc(Cl)cc2C(c2c(F)cccc2OC)=NC3)ccc1C(=O)O [Alisertib] + Cc1cc(Nc2cc(N3CCN(C)CC3)nc(Sc3ccc(NC(=O)C4CC4)cc3)n2)n[nH]1 [Tozasertib] (partner 0.1 µM)
How it was run: (§1)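 Relative viability was taken as the ratio of nuclei in treated wells to nuclei in vehicle wells. Lung cancer cell lines in 1536-well plates received compounds by pin tool one day after seeding, either one drug alone or a fixed anchor-drug dose plus five library-drug doses (not always all listed) in √10 steps. Nuclei were counted on 4× images after 5 days of treatment, and values are medians of duplicate plates.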

Alisertib + Dasatinib = compound: COc1cc(Nc2ncc3c(n2)-c2ccc(Cl)cc2C(c2c(F)cccc2OC)=NC3)ccc1C(=O)O [Alisertib] + Cc1nc(Nc2ncc(C(=O)Nc3c(C)cccc3Cl)s2)cc(N2CCN(CCO)CC2)n1 [Dasatinib] (partner 0.075 µM)
How it was run: as §1

Alisertib + Foretinib = compound: COc1cc(Nc2ncc3c(n2)-c2ccc(Cl)cc2C(c2c(F)cccc2OC)=NC3)ccc1C(=O)O [Alisertib] + COc1cc2c(Oc3ccc(NC(=O)C4(C(=O)Nc5ccc(F)cc5)CC4)cc3F)ccnc2cc1OCCCN1CCOCC1 [Foretinib] (partner 0.25 µM)
How it was run: as §1

Alisertib + Phenformin = compound: COc1cc(Nc2ncc3c(n2)-c2ccc(Cl)cc2C(c2c(F)cccc2OC)=NC3)ccc1C(=O)O [Alisertib] + N=C(N)NC(=N)NCCc1ccccc1 [Phenformin] (partner 250 µM)
How it was run: as §1

Alisertib + OSI-027 = compound: COc1cc(Nc2ncc3c(n2)-c2ccc(Cl)cc2C(c2c(F)cccc2OC)=NC3)ccc1C(=O)O [Alisertib] + COc1cccc2cc(-c3nc([C@H]4CC[C@H](C(=O)O)CC4)n4ncnc(N)c34)[nH]c12 [OSI-027] (partner 0.5 µM)
How it was run: as §1

Alisertib + Luminespib = compound: COc1cc(Nc2ncc3c(n2)-c2ccc(Cl)cc2C(c2c(F)cccc2OC)=NC3)ccc1C(=O)O [Alisertib] + CCNC(=O)c1noc(-c2cc(C(C)C)c(O)cc2O)c1-c1ccc(CN2CCOCC2)cc1 [Luminespib] (partner 0.01 µM)
How it was run: as §1

Alisertib = compound: COc1cc(Nc2ncc3c(n2)-c2ccc(Cl)cc2C(c2c(F)cccc2OC)=NC3)ccc1C(=O)O [Alisertib]
How it was run: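 Acceptance criteria were a control CV below 25% and at least one doubling per plate. Lung cancer cell lines in 1536-well plates got five library-drug doses (not always all listed) √10 apart by pinning and were left 5 days with no medium change. Viability divides treated-well nuclei by vehicle-well nuclei and is the median across plates. Nuclei were counted by MetaXpress from 4× Hoechst images.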

## NCI-H1623
Alisertib + Tozasertib; first compound 0.005 µM
  relative viability: 0.37
Alisertib + Tozasertib; first compound 0.01581 µM
  relative viability: 0.398
Alisertib + Tozasertib; first compound 0.05 µM
  relative viability: 0.424
Alisertib + Tozasertib; first compound 0.1581 µM
  relative viability: 0.386
Alisertib + Tozasertib; first compound 0.5 µM
  relative viability: 0.425
Alisertib + Dasatinib; first compound 0.005 µM
  relative viability: 0.587
Alisertib + Dasatinib; first compound 0.01581 µM
  relative viability: 0.647
Alisertib + Dasatinib; first compound 0.05 µM
  relative viability: 0.573
Alisertib + Dasatinib; first compound 0.1581 µM
  relative viability: 0.344
Alisertib + Dasatinib; first compound 0.5 µM
  relative viability: 0.337
Alisertib + Foretinib; first compound 0.005 µM
  relative viability: 0.884
Alisertib + Foretinib; first compound 0.01581 µM
  relative viability: 0.848
Alisertib + Foretinib; first compound 0.05 µM
  relative viability: 0.569
Alisertib + Foretinib; first compound 0.1581 µM
  relative viability: 0.425
Alisertib + Foretinib; first compound 0.5 µM
  relative viability: 0.424
Alisertib + Phenformin; first compound 0.005 µM
  relative viability: 0.619
Alisertib + Phenformin; first compound 0.01581 µM
  relative viability: 0.592
Alisertib + Phenformin; first compound 0.05 µM
  relative viability: 0.501
Alisertib + Phenformin; first compound 0.1581 µM
  relative viability: 0.382
Alisertib + Phenformin; first compound 0.5 µM
  relative viability: 0.337
Alisertib + OSI-027; first compound 0.005 µM
  relative viability: 0.439
Alisertib + OSI-027; first compound 0.01581 µM
  relative viability: 0.439
Alisertib + OSI-027; first compound 0.05 µM
  relative viability: 0.398
Alisertib + OSI-027; first compound 0.1581 µM
  relative viability: 0.295
Alisertib + OSI-027; first compound 0.5 µM
  relative viability: 0.309
Alisertib + Luminespib; first compound 0.005 µM
  relative viability: 0.499
Alisertib + Luminespib; first compound 0.01581 µM
  relative viability: 0.496
Alisertib + Luminespib; first compound 0.05 µM
  relative viability: 0.385
Alisertib + Luminespib; first compound 0.1581 µM
  relative viability: 0.33
Alisertib + Luminespib; first compound 0.5 µM
  relative viability: 0.379
Alisertib; 0.005 µM
  relative viability: 0.841
Alisertib; 0.01581 µM
  relative viability: 0.856
Alisertib; 0.05 µM
  relative viability: 0.656
Alisertib; 0.1581 µM
  relative viability: 0.4
Alisertib; 0.5 µM
  relative viability: 0.395
